Measurements taken from US8222210B2 (priority 2005, dated 2012).

How the values were obtained:
NK1 receptor [1] = assay: rabbit iris sphincter smooth muscle contraction; assay type: cell-based, New Zealand White rabbits; details: for biological activity relative to SP: rabbit iris sphincter muscle contraction
Text: The biological assay chosen for this study was smooth muscle contraction with the rabbit iris sphincter. […] The conformational investigations involved ^1H-NMR analyses of a set of β-MeF-containing SP analogs, and a computational study of the effects that the introduction of a β-methyl group in the Phe^7 and/or Phe^8 residues has upon an energy minimized structure of the peptide, using the helical structure of SP derived by Young et al. (1994) as a starting point for the calculations.
New Zealand White rabbits were sacrificed by an i.v. overdose of sodium pentobarbital. The eyes were then enucleated and the iris/ciliary body was isolated. Central regions of the iris sphincter muscle was then isolated and the tissue bisected, producing two iris sphincter muscle preparations. The muscle strips were connected to a Grass force-displacement transducer with an initial loading force of 100 mg placed on the muscle. The tissue was then allowed to equilibrate for 60 minutes. Contractions were recorded by a Grass 7 Physiograph. Tissues were bathed at 37° C. in a 50 ml modified Ringer's solution (90 mM NaCl, 3.6 mM KCl, 20 mM HEPES (sodium salt), 0.6 mM MgCl, 7.5 mM Na2SO4, 1.4 mM Ca-gluconate, 20 mM NaHCO3, 0.6 mM MgSO4, 0.6 mM K2HPO4 and 26 mM glucose). The Ringer's solution was gassed with 95% air/5% CO2 (pH 7.4). […] To block potential proteolytic effects the following proteolysis inhibitors were added: 1 μM thiorphan, 1 μM phosphoramidon, 1 μM captopril, 3 μg/ml leupeptin, and 3 μg/ml chymostatin.
To evaluate the viability of each muscle preparation, maximum contraction was determined by a 10^−5 M dose of carbachol at the beginning and end of each experiment. Following the initial carbachol dose, tissues were washed by three exchanges of Ringer's solutions. Previous studies have shown that this is sufficient to remove carbachol from these solutions and to return the resting tension to normal values. Each peptide was then evaluated for its ability to induce sphincter muscle contraction, and dose-response curves (from 2×10^−11 to 7×10^−7 M) were determined. A minimum of four determinations were performed for each experimental condition. The dose response curves were fit by means of a nonlinear regression analysis program (Sigma Plot®, Jandel Scientific).
Therefore, since the binding of SP to the NK1 and NK3 receptors in the rabbit iris differs by a factor of over 20, it is reasonable to assume that the contraction of the rabbit iris sphincter by βMeF-containing SP analogs primarily reflect the activation of the NK1 receptor.

[2] = test system: full thickness skin punch wounds; assay: full thickness skin punch wound healing in a rat model (topical, AQUAPHOR); assay type: in vivo, Sprague-Dawley rats; details: for percentage decrease of the wound area versus control wounds (paired T-test): SP p<0.025, selenocystamine at the 0.05 level; for % decrease in wound size (wound area day 6 compared with day 0): rat punch wound, topical once a day, SP 0.05%, selenocystamine 10 ug Se/ml
Method: In addition, selenocystamine was tested as a potential wound treatment at the same time.
Twenty-one male Sprague-Dawley rats weighing between 300-350 g were used in this study. The rats were housed in the temperature controlled vivarium at Texas Tech Health Science Center with a 12-hour alternating light cycle, and were provided water and rat chow ad libitum. Animals were allowed several days of adjustment upon arrival before the surgery to get rehydrated and familiar with the environment. The study protocol was approved by the Texas Tech University Health Sciences Center Animal Care and Use Committee which assured that the animals received humane care.
On the day of the surgery (day 0), the rats were weighed and anesthetized with 1 ml/kg intraperitoneal (IP) injection of the solution made up of 3 parts XYLAZINE® and 7 parts of KETASET®. The animals' backs and necks were shaved and prepared aseptically. Lack of response to tail pinch and absence of a righting reflex were used as indications that anesthesia was adequate. Supplemental anesthetic was administered IP as necessary to maintain an adequate anesthesia.
A 7 mm-diameter punch (George Tiemann & Co.) was used to introduce the punch wound. The procedure was to fold the skin along the sagittal axis and put it down left or right side (rotate animal by animal) against a hard surface, then to thrust the punch through the two layers of skin. In this way, two identical punch wounds were obtained. Four wounds were introduced on each animal. The four wounds were arranged in two columns parallel to the sagittal axis and two rows parallel to the transverse axis.
After the wound procedure, three different treatments were assigned to the wounds. […] The two under were assigned selenocystamine treatment. For the control wound, a drop of normal saline was applied followed by a layer of AQUAPHOR™ to cover the wound. For the SP wound, a drop of 0.05% (0.5 mg/ml) SP water solution was applied followed by a layer of 0.05% (0.5 mg/g) SP-AQUAPHOR™ to cover the wound. For the selenocystamine wounds, a drop of selenocystamine water solution (10 ug Se/ml) was applied to each wound followed by a layer of selenocystamine-AQUAPHOR™ ([…]) to cover the wound. Then gauze and tape were applied to secure the wound. The animals were held under warming lights and observed until they were fully recovered from the anesthesia and then were returned to the vivarium. All the treatment agents and placebo were stored in a refrigerator. Dressing changes and treatments were performed once a day until the animals were sacrificed on day 6. The assignments and dosage of the treatments were as described above.
Following the surgery, the wounds were measured in two dimensions: sagittal and transverse. Photographs were taken using a PENTAX® ESPIO 928 camera and Kodak® ISO 200 color film. After the animals were sacrificed on day 6, the eschars covering the wounds were removed. Then the wounds were again measured in two dimensions, and photographs were taken.
The animals were sacrificed on day 6 after the surgery by euthanasia with […]® (Sodium Pentobarbital, 7.9% isopropanol, euthanasia solution). The entire wound plus a 1 mm margin of normal skin from each of the test and control wound sites on each animal was excised and preserved in buffered formalin.
The product obtained by multiplying the two measurements of each wound was referred to as the area of the wound. The percentage of the decrease of the wound area on day 6 compared with day 0 was used to evaluate the rate of healing. Since the exact time of wound healing was difficult to determine, day 6 was chosen.
Mean and standard deviations were determined on the difference of the percentage of the wound area decrease between each treatment and the control. Significant differences between treatments and the control were determined by paired T-test to see if the percentage of the decrease in wound area was greater for the treated wounds than for the control wound. […]

NK1 receptor [3] = biological target: NK1 receptor (Homo sapiens, UniProt P25103); details: cited from earlier work
Chain of NK1 receptor (Homo sapiens, UniProt P25103) (P25103 whole entry, species assumed): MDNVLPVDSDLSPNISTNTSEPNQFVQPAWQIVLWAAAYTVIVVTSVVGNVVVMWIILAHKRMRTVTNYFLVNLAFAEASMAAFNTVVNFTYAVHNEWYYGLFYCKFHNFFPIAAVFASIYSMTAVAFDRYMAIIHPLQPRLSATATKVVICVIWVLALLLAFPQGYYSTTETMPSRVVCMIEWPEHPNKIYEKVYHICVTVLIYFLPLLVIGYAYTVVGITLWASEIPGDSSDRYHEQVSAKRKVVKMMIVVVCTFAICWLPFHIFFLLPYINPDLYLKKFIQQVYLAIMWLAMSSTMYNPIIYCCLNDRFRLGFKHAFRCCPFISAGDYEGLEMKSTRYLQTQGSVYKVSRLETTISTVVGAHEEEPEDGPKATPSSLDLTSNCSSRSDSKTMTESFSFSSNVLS

cellular growth = cellular growth promoting activity (description); assay type: cell-based
NK1 and NK3 receptors = details: rabbit iris; cited from earlier work
full thickness wound = assay: full thickness 7 mm punch wound in the back of rats, hyaluronic acid vehicle (FIG. 10); assay type: in vivo; details: after 6 days, 16 rats, both wounds received hyaluronic acid vehicle
Text: FIG. 10 represents the percent healing after 6 days for a full thickness wound in the back of 16 different rats. The initial wound size was a 7 mm punch wound. Each rat received two wounds, a control (no SP) and an SP treated wound. Both wounds received a hyaluronic acid vehicle.
Supplemental growth factors have the ability to accelerate wound healing in a variety of experimental animal models (EE). This has even led to clinical trials. However, the human studies have not been as successful as the animal models. Due to the complexity of the interaction of different growth factors, it is likely that the right combination of different growth factors has not been explored.

## 7R-(βMeF)SP: Substance P analog with R-β-methylphenylalanine at position 7
NK1 receptor [1]
  biological activity relative to SP: equipotent to SP

## 8S-(βMeF)SP: Substance P analog with S-β-methylphenylalanine at position 8
NK1 receptor [1]
  biological activity relative to SP: the least active of the monosubstituted analogs
NK1 receptor [1]; listed as S-β-MeF into position 8 of SP
  biological activity relative to SP: ten-fold reduction

## 7S,8S-(βMeF)2SP: Substance P analog with S-β-methylphenylalanine at positions 7 and 8
NK1 receptor [1]
  biological activity relative to SP: most active disubstituted SP analogs
NK1 receptor [1]; listed as 7S,8S-(β-MeF)2SP
  biological activity relative to SP: enhance the activity

## NCC[Se][Se]CCN [selenocystamine, reference compound]
[2]; day 6
  percentage decrease of the wound area versus control wounds (paired T-test): not significantly higher than the control
  % decrease in wound size (wound area day 6 compared with day 0): 31.8±18.3%
[2]; six day period
  wound enlargement (one wound of the group): 2.9%

## 7S-(βMeF)SP: Substance P analog with S-β-methylphenylalanine at position 7
NK1 receptor [1]
  biological activity relative to SP: slightly more active than SP

## 7S,8R-(βMeF)2SP: Substance P analog with S-β-methylphenylalanine at position 7 and R- at position 8
NK1 receptor [1]
  biological activity relative to SP: equipotent (to SP)
NK1 receptor [1]; listed as 7S,8R-(β-MeF)2SP
  biological activity relative to SP: do not significantly alter the activity

## 8R-(βMeF)SP: Substance P analog with R-β-methylphenylalanine at position 8
NK1 receptor [1]
  biological activity relative to SP: the most active SP analog
NK1 receptor [1]; listed as R-β-MeF into position 8 of SP
  biological activity relative to SP: four-fold enhancement

## QFFGLM (SEQ ID NO:8) (listed as Homo sapiens) [SP6-11, reference compound]
NK1 receptor [3]
  activity as % of that found for the whole SP molecule: 50-90%
Cellular growth
  cellular growth promoting activity: active in promoting cellular growth

## 7R,8R-(βMeF)2SP: Substance P analog with R-β-methylphenylalanine at positions 7 and 8
NK1 receptor [1]
  biological activity relative to SP: the least active analog
NK1 receptor [1]; listed as 7R,8R-(β-MeF)2SP
  biological activity relative to SP: diminish the biological activity by a factor of ten

## RPKPQQFFGLM (SEQ ID NO:1) [SP]
NK1 receptor [1]; rabbit iris sphincter muscle
  doses producing a rapid increase in the force of contraction: greater than 10^−10 M
  maximum effective dose: 10^−7 M
NK1 and NK3 receptors
  factor by which binding to NK1 and NK3 receptors differs: over 20
[2]; day 6
  percentage decrease of the wound area versus control wounds (paired T-test): significantly higher than that of the control wounds
  % decrease in wound size (wound area day 6 compared with day 0): 41.6±15.0%
[2]; single wound of the treatment group, day 6
  wound with the greatest decrease in size: 66.7%
Full thickness wound
  control wounds showing more percent healing than the SP wound on the same rat: 4 out of 16

## 7R,8S-(βMeF)2SP: Substance P analog with R-β-methylphenylalanine at position 7 and S- at position 8
NK1 receptor [1]
  biological activity relative to SP: most active disubstituted SP analogs
NK1 receptor [1]; listed as 7R,8S-(β-MeF)2SP
  biological activity relative to SP: enhance the activity

## SEQ ID NO:9: substitution peptide where norleucine has been substituted for the C-terminus methionine in Substance P (RPKPQQFFGLX; (11)..(11) Norleucine; listed as Homo sapiens)
Cellular growth
  cellular growth promoting activity: enhanced activity under at least some treatment conditions
